{"source": "patent US20220213170A1", "about": "“PEPTIDES” (Hubro Therapeutics AS, priority 2019, published 2022)", "key": {"[1]": {"system": "tumour infiltrating Th cells in MSI+ tumours", "settings": "cited from earlier work"}, "[2]": {"system": "T cells (PBMC) from healthy donors", "test": "T-cell proliferation (3H-thymidine uptake, stimulation index) after in vitro stimulation of PBMC with fsp2+fsp4 cocktail", "format": "cell-based, human", "settings": "for Immune response of Donor 3: Donor 3, stimulation with fsp2 and fsp4 mixture, FIG. 11; for Immunogenicity relative to fsp3 and fsp4: FIGS. 10 and 11, peptides with wild-type TGFβR2 amino acids vs without; for Immunogenicity (T cell proliferation, stimulation index): first and second round of stimulation with fsp2+fsp4, 10 μM test peptide, FIGS. 10-12", "experimental": "Fresh buffy coats from four healthy donors were obtained from a blood bank.\nPeripheral blood mononuclear cells (PBMC) isolated from fresh buffy coats from four healthy donors were counted and suspended in DC medium to 15*10^6 cells/ml, and subsequently diluted with DC-medium to 4*10^6 cells/ml (Table 6).\nFour 24-well plates were used for each donor, with 4*10^6 cells per well (each well has a volume of 1 ml).\nPeptide cocktail: Solution of peptides fsp2+fsp4, containing 10 μM of each peptide. 40 μl peptide solution was added to each well.\nThe plates were incubated in a cell incubator for 14 days (37° C., 5% CO2). IL-2 and IL-7 were added on day 3. The cells were inspected daily.\nTest peptides: fsp2+fsp4 (SEQ ID NOs: 5 and 7), fsp1 (SEQ ID NO: 4), fsp2 (SEQ ID NO: 5), fsp3 (SEQ ID NO: 6), fsp4 (SEQ ID NO: 7), fsp5 (SEQ ID NO: 3).\nCells and reagents were added to plate wells (in triplicate) as described in Tables 7 and 8 below. The total volume added to each well was 0.20 ml. • T cells (PBMC): 50 000 cells/well (0.25*10^6 cells/ml) • APC: Irradiated (30Gy, 8 minutes) autologous feeder cells: 50 000 cells/well • Peptide (fspx): […] peptide/well (each peptide), concentration: 10 μM peptide. (fsp was dissolved in DMSO before dilution to correct concentration)\nThe plates were incubated in a cell incubator for 48 hours (37° C., 5% CO2).\nAfter incubation for 48 hours, 20 μl 3H-tThymidine solution (5 μCi/ml) was added to each well and the plates were incubated for approximately 17 hours (37° C., 5% CO2).\nAfter 17 hours the cells were harvested (Unifilters) and dried on the filters at 45° C. until completely dry. After covering the bottom of the Unifilters with adhesive covers (delivered with the Unifilters) 25 μl micro scintillation liquid was added to each well, the plate was covered with TopSeal and 3H-Thymidine uptake was measured as counts per minute (CPM) using a microplate scintillation counter.\nThe T cell proliferation results after the first round of in vitro stimulation with the cocktail of fsp2 and fsp4 peptides are presented as stimulation index (SI) in FIG. 10. SI=mean CPM (triplicates) of (T cells+APC+test peptide(s)) divided by mean CPM (triplicates) of (T cells+APC). SI≥2 is a clear signal of immunogenicity.\nPBMCs harvested after the first in vitro stimulation were re-stimulated in vitro according to the protocol set out above, with 2×10^6 cells per well. T-cell proliferation was tested according to the protocol set out above.\nThe T cell proliferation results after a second round of in vitro stimulation with the cocktail of fsp2 and fsp4 peptides are presented as stimulation index (SI) in FIG. 11."}, "[3]": {"test": "Peptide solubility", "format": "physicochemical", "experimental": "The peptide was difficult to dissolve and it was attempted to dissolve the crude fsp5 (SEQ ID NO: 3) (˜150 mg) in approximately 4 ml 50% MeCN in water under gentle heating.\nAnother batch of fsp5 (SEQ ID NO: 3) was prepared, dissolved in neat DMSO under gentle heating and purified by preparative HPLC. Again, only very small amounts of purified fsp5 (SEQ ID NO: 3) were obtained."}, "[4]": {"test": "Peptide stability (purity by UPLC after lyophilisation or storage)", "format": "physicochemical", "settings": "purified peptide, dropped from around 90% before lyophilisation", "experimental": "A batch of fsp5 (SEQ ID NO: 3) was prepared by solid phase peptide synthesis (SPPS) by using FMOC chemistry and Prelude synthesizer (Gyros Protein Technologies Inc., USA). The crude peptide was analysed by UPLC and MS. […] UPLC system: Column; Acquity UPLC BEH C18 […], […], detection; PDA 210-500 nm, solvent A); 0.1% TFA in water, solvent B; 0.1% TFA in MeCN, gradient: 20-70% B (2-10 minutes, linear).\nWhen the purity of the small amount of purified fsp5 (SEQ ID NO: 3) was reassessed by UPLC after lyophilisation, the purity had dropped from around 90% to below 50% as shown in FIG. 4."}, "[5]": {"system": "T-cells from PMBCs from four healthy donors", "test": "T-cell proliferation (stimulation index) after induction of PBMC with fsp2, fsp8 and fsp9 mixture", "format": "cell-based, human", "settings": "for Immunogenicity (T-cell proliferation, stimulation index): first round of stimulation, T-cells induced with fsp2+fsp8+fsp9, FIG. 13", "experimental": "The same protocol as that set out in Example 7 was used to test the immunogenicity of fsp6 and fsp7 (SEQ ID NO: 26 and SEQ ID NO: 27, respectively), except for the peptide mixture used to induce T-cells from PMBCs from fresh buffy coats from four healthy donors. The peptide mixture used in this Example to induce T-cells from PMBCs was made up of fsp2 (SEQ ID NO: 5; 10 μM), fsp8 (SEQ ID NO: 31; 10 μM) and fsp9 (SEQ ID NO: 32; 10 μM). Fsp8 (SEQ ID NO: 31; […]) is a peptide of ASTE1 having a −1a frameshift mutation, and fsp9 (SEQ ID NO: 32; […]) is a peptide of TAF1β having a −1a frameshift mutation.\nAt day 14 after induction, a T-cell proliferation assay was carried out as in Example 7, using fsp2 (SEQ ID NO: 5), fsp6 (SEQ ID NO: 26) and fsp7 (SEQ ID NO: 27) as test peptides. As fsp8 and fsp9 have very different amino acid sequences from fsp2, only fsp2 would be able to induce T-cells which are capable of recognising and being stimulated by fsp2, fsp6 and fsp7. […] Two further rounds of T-cell stimulation were also carried out, with a T-cell proliferation assay being carried out 14 days after each stimulation.\nThe T-cell proliferation results after the first round of in vitro stimulation are presented as stimulation index (SI) in FIG. 13. […] It is also expected, in view of the results shown in FIGS. 11 and 12, that a peptide having the sequence of fsp6 (SEQ ID NO: 26) but having an amino acid substitution corresponding to that in fsp2, and particularly a C-to-G amino acid substitution as in fsp2, is also immunogenic and is useful as a vaccine or treatment against cancer. […] Thus, it is expected that fsp6a (SEQ ID NO: 28), which is identical to fsp6 (SEQ ID NO: 26) except for the same C-to-G amino acid substitution as fsp2 (SEQ ID NO: 5), will also be immunogenic."}, "[6]": {"system": "CTLs (HLA-A2.1 restricted)", "settings": "cited from earlier work"}, "[7]": {"system": "colorectal cancer cell line HCT116", "settings": "cell line carries the corresponding frameshift mutation; cited from earlier work"}, "[8]": {"system": "CTL", "settings": "cited from earlier work"}, "[9]": {"system": "T-cells", "settings": "after four rounds of stimulation of the T-cells; cited from earlier work"}, "[10]": {"settings": "patients recognising the peptide"}}, "note": "Where no end group is shown, it is not given here.", "data": [{"substance": "AMTTSSSQKNITPAILTCC [p537, prior art peptide of mutTGFβR2]", "values": [{"measurement": "Immunogenicity (Saeterdal, PNAS)", "setting": "[1]", "value": "not immunogenic"}]}, {"substance": "KCIMKEKKSLVRLSSCVPVALMSA (listed as Homo sapiens) [fsp1]", "values": [{"measurement": "Immune response of Donor 3", "setting": "[2]", "value": "showed an immune response"}, {"measurement": "Immunogenicity relative to fsp3 and fsp4", "setting": "[2]", "value": "more immunogenic"}, {"measurement": "Immunogenicity (T cell proliferation, stimulation index)", "setting": "[2]", "value": "immunogenic"}]}, {"substance": "KCIMKEKKSLVRLSSCVPVALMSAMTTSSSQKN (listed as Homo sapiens) [fsp5]", "values": [{"measurement": "Solubility: effect of water on crude DMSO solution", "setting": "[3]; addition of even small amounts of water to crude DMSO solution", "value": "precipitation of the peptide"}, {"measurement": "Solubility", "setting": "[3]; crude peptide ~150 mg in approximately 4 ml 50% MeCN in water under gentle heating", "value": "no clear solution could be obtained"}, {"measurement": "Purity by UPLC after lyophilisation (stability)", "setting": "[4]", "value": "below 50%"}, {"measurement": "Immunogenicity relative to fsp3 and fsp4", "setting": "[2]", "value": "more immunogenic"}, {"measurement": "Immunogenicity (T cell proliferation, stimulation index)", "setting": "[2]", "value": "immunogenic"}]}, {"substance": "KGIMKEKKSLVRLSSCVPVALMSA (not fully specified) [fsp2]", "values": [{"measurement": "Immune response of Donor 3", "setting": "[2]", "value": "showed an immune response"}, {"measurement": "Immunogenicity relative to fsp3 and fsp4", "setting": "[2]", "value": "more immunogenic"}, {"measurement": "Immunogenicity (T cell proliferation, stimulation index)", "setting": "[2]", "value": "immunogenic"}, {"measurement": "Immunogenicity relative to fsp7", "setting": "[5]; FIG. 13", "value": "much more immunogenic"}]}, {"substance": "PKCIMKEKKKSLVRLSSCV [p541, prior art peptide of mutTGFβR2]", "values": [{"measurement": "Immunogenicity (Saeterdal, PNAS)", "setting": "[1]", "value": "immunogenic"}, {"measurement": "Induction of T-cell responses in patients", "setting": "[1]", "value": "able to induce T-cell responses in some patients"}]}, {"substance": "RLSSCVPVA [p573, prior art peptide of mutTGFβR2]", "values": [{"measurement": "Activation of specific CTLs in vitro", "setting": "[6]; HLA-A2.1 restricted", "value": "capable of activating specific CTLs"}, {"measurement": "Immunogenicity (FIG. 1 of Linnebacher et al.)", "setting": "[6]", "value": "immunogenic"}, {"measurement": "Lysis of HCT116", "setting": "[7]", "value": "able to lyse"}, {"measurement": "Generation of CTL line and clones", "setting": "[8]", "value": "able to generate a CTL line and several CTL clones"}, {"measurement": "Immunogenicity (Saeterdal, Cancer Immunol Immunother)", "setting": "[8]", "value": "immunogenic"}, {"measurement": "Immunogenicity (FIG. 14 of EP1078000)", "setting": "[9]", "value": "not immunogenic"}]}, {"substance": "SLVRLSSCV [p523, prior art peptide of mutTGFβR2]", "values": [{"measurement": "Immunogenicity (FIG. 1 of Linnebacher et al.)", "setting": "[6]", "value": "not immunogenic"}, {"measurement": "Immunogenicity (FIG. 14 of EP1078000)", "setting": "[9]", "value": "immunogenic"}]}, {"substance": "SLVRLSSCVPVALMSAMTTSSSQ [p538, prior art peptide of mutTGFβR2]", "values": [{"measurement": "Immunogenicity (Saeterdal, PNAS)", "setting": "[1]", "value": "highly immunogenic"}, {"measurement": "Recognition by patients having spontaneous MSI+ colon cancer", "setting": "[1]; [10]", "value": "two of three"}, {"measurement": "Recognition by patients with HNPCC", "setting": "[1]; [10]", "value": "all three"}]}, {"substance": "SPKCIMKEKKSLVRLSSCVPVA [P540, prior art peptide of mutTGFβR2]", "values": [{"measurement": "Immunogenicity (Saeterdal, PNAS)", "setting": "[1]", "value": "immunogenic"}, {"measurement": "Induction of T-cell responses in patients", "setting": "[1]", "value": "able to induce T-cell responses in some patients"}]}, {"substance": "SSGVPVALMSAMTTSSSQKN (also: 2TFA salt) [fsp4]", "values": [{"measurement": "Immunogenicity (T cell proliferation, stimulation index)", "setting": "[2]", "value": "immunogenic"}]}, {"substance": "fsp6: Peptide of SEQ ID NO: 26; same sequence as fsp2 but truncated at the C-terminus and without C-to-G substitution (KCIMKEKKSLVRLSSCV; listed as Homo sapiens)", "values": [{"measurement": "Immunogenicity relative to fsp2", "setting": "[5]; FIG. 13", "value": "less immunogenic"}, {"measurement": "Immunogenicity relative to fsp7", "setting": "[5]; FIG. 13", "value": "much more immunogenic"}, {"measurement": "Immunogenicity (T-cell proliferation, stimulation index)", "setting": "[5]", "value": "immunogenic"}]}, {"substance": "fsp7: Peptide of SEQ ID NO: 27; same amino acid sequence as fsp2 but truncated at the N-terminus (VRLSSCVPVALMSA; listed as Homo sapiens)", "values": [{"measurement": "Immunogenicity (T-cell proliferation, stimulation index)", "setting": "[5]", "value": "too truncated at the N-terminus compared to fsp2 (SEQ ID NO 5) to be immunogenic"}]}]}
